# Reference: article PMC10746543, “Design principles for cyclin K molecular glue degraders” (Nature Chemical Biology, 2023)
# “And” between values parts separate entries of the source, which are not always exact repeats. Equal values may be shown once. Read-outs that look alike come from different tables or passages of the source.
# Experiments:
# CDK12–cyclin K = CDK12–cyclin K (Homo sapiens, UniProt Q9NYV4); assay: Lanthascreen kinase binding assay, CDK12; settings: series r1, duplicates
# Experimental: (§1) Lanthascreen experiments were performed using commercially available reagents (Thermo Fisher) and according to the manufacturer’s instructions.
# HEK293T cells = assay: Drug sensitivity assay (CellTiter-Glo viability) with or without MLN4924 pretreatment; format: cell-based, human; settings: Supplementary Table 2
# Method in brief: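 Cas9-expressing HEK293T cells receive either vehicle or 100 nM MLN4924, then compounds 2 h afterwards. After three days, luminescence-based viability is measured and calculated relative to DMSO.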
# CDK2–cyclin A = biological target: T1, CDK2–cyclin A (Homo sapiens, UniProt P24941); assay: Lanthascreen kinase binding assay, CDK2; settings: for Lanthascreen signal, sheet CDK2: raw replicates, experiment r1-r11
# T1 construct: purchased Thermo Fisher
# Experimental: as §1
# CDK9–cyclin T = biological target: T2, CDK9–cyclin T (Homo sapiens, UniProt P50750); assay: Lanthascreen kinase binding assay, CDK9; settings: for Lanthascreen TR-FRET signal (raw ratio), sheet CDK9: first titration set (r1), duplicates
# T2 construct: purchased Thermo Fisher
# Experimental: as §1
# [1] = system: cyclin K–eGFP degradation reporter; assay: Cyclin K reporter stability analysis (dual-color cyclin K–eGFP reporter); format: cell-based, human; settings: source data sheet correlations; read-out: DC50
# Method in brief: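 Readout was the eGFP-to-mCherry geometric-mean ratio by flow cytometry, normalized to three DMSO controls, after 5 h drug exposure. Cells used were HEK293T–Cas9 expressing the dual-colour cyclin K–eGFP degradation reporter.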
# CDK12–cyclin K and DDB1 = biological target: T3, CDK12–cyclin K and DDB1 (Homo sapiens, UniProt Q16531+Q9NYV4, K965R); assay: TR-FRET ternary complex formation assay (compound titration); format: binding
# T3 construct: His6–CDK12 (a.a. 713–1,052); full-length or beta-propeller B domain deletion (ΔBPB: a.a. 396–705 deleted) constructs of His6–DDB1ΔBPB, StrepII–Avi–DDB1, or His6–Spy–DDB1; made in house; host or cells: Trichoplusia ni High Five insect cells (baculovirus)
# Method in brief: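 A time delay of 70 μs preceded acquisition, limiting background fluorescence; the ratio of emission at 520 versus 490 nm gave the TR-FRET value.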
# T3 sequence (Q9NYV4 713-1052 K965R): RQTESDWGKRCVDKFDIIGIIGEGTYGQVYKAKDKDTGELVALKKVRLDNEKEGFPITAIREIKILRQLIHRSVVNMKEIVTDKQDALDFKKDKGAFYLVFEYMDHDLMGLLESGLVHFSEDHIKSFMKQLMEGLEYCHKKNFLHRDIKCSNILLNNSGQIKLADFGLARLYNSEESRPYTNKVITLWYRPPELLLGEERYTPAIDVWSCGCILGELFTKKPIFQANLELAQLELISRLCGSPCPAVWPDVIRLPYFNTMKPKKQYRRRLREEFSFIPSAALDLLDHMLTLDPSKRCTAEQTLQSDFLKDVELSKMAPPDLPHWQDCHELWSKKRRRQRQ
# T3 sequence (O75909 1-267 partner): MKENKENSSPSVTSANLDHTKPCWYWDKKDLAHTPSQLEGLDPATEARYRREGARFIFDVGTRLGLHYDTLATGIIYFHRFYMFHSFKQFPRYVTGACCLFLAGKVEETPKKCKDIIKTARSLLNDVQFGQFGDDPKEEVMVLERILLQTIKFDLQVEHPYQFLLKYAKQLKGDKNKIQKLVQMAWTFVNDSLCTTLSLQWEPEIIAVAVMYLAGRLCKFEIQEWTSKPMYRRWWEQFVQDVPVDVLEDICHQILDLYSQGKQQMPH
# T3 sequence (Q16531 whole entry): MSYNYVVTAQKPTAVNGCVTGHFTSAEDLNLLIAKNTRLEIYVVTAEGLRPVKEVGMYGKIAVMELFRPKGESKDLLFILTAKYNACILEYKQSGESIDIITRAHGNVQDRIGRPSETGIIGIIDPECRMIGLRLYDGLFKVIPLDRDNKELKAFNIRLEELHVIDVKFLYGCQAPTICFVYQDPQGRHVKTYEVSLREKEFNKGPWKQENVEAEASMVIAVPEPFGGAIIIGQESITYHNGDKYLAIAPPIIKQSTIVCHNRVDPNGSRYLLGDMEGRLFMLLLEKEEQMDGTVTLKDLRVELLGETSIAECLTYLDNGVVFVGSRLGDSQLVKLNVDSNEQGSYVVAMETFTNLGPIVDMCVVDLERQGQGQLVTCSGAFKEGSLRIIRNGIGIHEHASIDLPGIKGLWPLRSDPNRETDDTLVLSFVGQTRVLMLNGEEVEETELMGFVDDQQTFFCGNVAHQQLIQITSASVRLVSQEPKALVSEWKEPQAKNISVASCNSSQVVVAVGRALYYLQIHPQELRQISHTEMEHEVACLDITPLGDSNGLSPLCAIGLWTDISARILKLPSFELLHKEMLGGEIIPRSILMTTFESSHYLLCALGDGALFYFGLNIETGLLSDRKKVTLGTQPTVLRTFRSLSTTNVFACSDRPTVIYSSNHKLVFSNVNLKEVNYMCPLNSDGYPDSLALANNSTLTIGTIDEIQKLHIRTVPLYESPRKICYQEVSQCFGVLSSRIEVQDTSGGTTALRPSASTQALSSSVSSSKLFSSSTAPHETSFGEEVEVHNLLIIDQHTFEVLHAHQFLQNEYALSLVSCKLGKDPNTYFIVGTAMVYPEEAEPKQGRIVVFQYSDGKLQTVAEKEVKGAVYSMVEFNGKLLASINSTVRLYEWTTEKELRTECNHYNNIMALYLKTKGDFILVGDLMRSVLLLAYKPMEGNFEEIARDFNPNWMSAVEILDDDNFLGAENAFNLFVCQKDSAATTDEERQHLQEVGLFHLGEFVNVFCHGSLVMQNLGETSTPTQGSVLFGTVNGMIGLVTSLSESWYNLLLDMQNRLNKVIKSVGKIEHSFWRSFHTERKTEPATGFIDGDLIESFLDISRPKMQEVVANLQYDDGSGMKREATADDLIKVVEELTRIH
# Sequence of CDK12–cyclin K (Q9NYV4 713-1052): as the sequence (Q9NYV4 713-1052 K965R) above, with R253K counted along it
# Sequence of CDK12–cyclin K (O75909 1-267 partner limits assumed): as the sequence (O75909 1-267 partner) above
# T2 sequence (P50750 whole entry): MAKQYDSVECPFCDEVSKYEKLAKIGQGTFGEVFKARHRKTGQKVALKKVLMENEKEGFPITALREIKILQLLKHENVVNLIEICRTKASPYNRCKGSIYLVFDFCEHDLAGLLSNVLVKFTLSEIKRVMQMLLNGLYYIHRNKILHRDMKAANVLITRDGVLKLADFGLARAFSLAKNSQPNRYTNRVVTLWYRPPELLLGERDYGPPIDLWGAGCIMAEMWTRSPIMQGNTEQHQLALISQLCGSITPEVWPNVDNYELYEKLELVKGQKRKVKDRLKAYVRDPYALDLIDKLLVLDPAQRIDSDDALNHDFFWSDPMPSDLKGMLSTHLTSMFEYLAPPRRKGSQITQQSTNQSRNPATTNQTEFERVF
# T2 sequence (O60563 whole entry partner): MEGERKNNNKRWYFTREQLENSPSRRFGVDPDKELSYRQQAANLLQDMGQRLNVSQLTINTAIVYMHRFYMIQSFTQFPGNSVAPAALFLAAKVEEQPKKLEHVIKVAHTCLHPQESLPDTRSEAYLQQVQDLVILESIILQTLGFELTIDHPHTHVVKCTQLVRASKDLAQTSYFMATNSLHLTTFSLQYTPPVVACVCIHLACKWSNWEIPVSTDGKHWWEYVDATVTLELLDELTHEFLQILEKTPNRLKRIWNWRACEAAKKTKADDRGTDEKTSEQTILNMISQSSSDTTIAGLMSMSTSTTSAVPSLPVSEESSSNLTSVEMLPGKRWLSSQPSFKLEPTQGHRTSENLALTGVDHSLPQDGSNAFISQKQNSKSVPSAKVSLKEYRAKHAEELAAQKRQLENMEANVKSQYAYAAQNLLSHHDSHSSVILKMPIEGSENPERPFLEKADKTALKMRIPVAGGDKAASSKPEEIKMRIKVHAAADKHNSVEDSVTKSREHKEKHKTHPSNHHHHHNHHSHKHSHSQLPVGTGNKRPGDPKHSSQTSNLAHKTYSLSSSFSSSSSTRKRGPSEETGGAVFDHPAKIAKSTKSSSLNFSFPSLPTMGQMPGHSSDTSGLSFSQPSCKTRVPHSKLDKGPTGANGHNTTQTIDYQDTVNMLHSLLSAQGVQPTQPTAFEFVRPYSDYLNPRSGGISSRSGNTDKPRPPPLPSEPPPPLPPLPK
smiles,measurement,setting,value
CC[C@H](CO)Nc1nc(NCc2nc3c(F)c(F)ccc3[nH]2)c2ncn(C(C)C)c2n1 [DS64],"Lanthascreen raw signal, sheet CDK12",CDK12–cyclin K; compound 1.02544 nM,0.01144 and 0.008554
same,"Lanthascreen raw signal, sheet CDK12",CDK12–cyclin K; compound 3.15521 nM,0.008537 and 0.009228
same,"Lanthascreen raw signal, sheet CDK12",CDK12–cyclin K; compound 9.46563 nM,0.008646 and 0.00887
same,"Lanthascreen raw signal, sheet CDK12",CDK12–cyclin K; compound 31.5521 nM,0.00802 and 0.006596
same,"Lanthascreen raw signal, sheet CDK12",CDK12–cyclin K; compound 99.3891 nM,0.007448 and 0.007338
same,"Lanthascreen raw signal, sheet CDK12",CDK12–cyclin K; compound 315.521 nM,0.006013 and 0.008259
same,"Lanthascreen raw signal, sheet CDK12",CDK12–cyclin K; compound 3155.21 nM,0.007185 and 0.006229
same,"Lanthascreen raw signal, sheet CDK12",CDK12–cyclin K; compound 10002 nM,0.005174 and 0.004623
same,EC50,"HEK293T cells; Homo sapiens, HEK-293T, HEK293T viability, 72 h, compound alone, read-out: Cellular assays EC50",527 nM
same,Toxicity rescue,"HEK293T cells; MLN4924-mediated cytotoxicity rescue, 10 µM used where n.d.",971%
same,"Lanthascreen signal, sheet CDK2",CDK2–cyclin A; Compound 1.02544 nM,0.01032 and 0.009036
same,"Lanthascreen signal, sheet CDK2",CDK2–cyclin A; Compound 3.15521 nM,0.009561 and 0.01039
same,"Lanthascreen signal, sheet CDK2",CDK2–cyclin A; Compound 9.46563 nM,0.01132 and 0.01064
same,"Lanthascreen signal, sheet CDK2",CDK2–cyclin A; Compound 31.5521 nM,0.009578 and 0.01231
same,"Lanthascreen signal, sheet CDK2",CDK2–cyclin A; Compound 99.3891 nM,0.0112 and 0.01036
same,"Lanthascreen signal, sheet CDK2",CDK2–cyclin A; Compound 315.521 nM,0.00859 and 0.007854
same,"Lanthascreen signal, sheet CDK2",CDK2–cyclin A; Compound 3155.21 nM,0.006995 and 0.007302
same,"Lanthascreen signal, sheet CDK2",CDK2–cyclin A; Compound 10002 nM,0.004999 and 0.005409
same,IC50,"CDK2–cyclin A; Supplementary Table 2, read-out: Lanthascreen IC50 [nM] CDK2",4960 nM
same,IC50,"CDK9–cyclin T; Lanthascreen, average, Extended Data Fig. 8, read-out: CDK9 IC50",> 10000 nM
same,IC50,"CDK9–cyclin T; Supplementary Table 2, read-out: Lanthascreen IC50 [nM] CDK9",> 10000 nM
same,"Lanthascreen TR-FRET signal (raw ratio), sheet CDK9",CDK9–cyclin T; compound 1.02544 nM,0.01262 and 0.01798
same,"Lanthascreen TR-FRET signal (raw ratio), sheet CDK9",CDK9–cyclin T; compound 3.15521 nM,0.01403 and 0.01513
same,"Lanthascreen TR-FRET signal (raw ratio), sheet CDK9",CDK9–cyclin T; compound 9.46563 nM,0.01561 and 0.01591
same,"Lanthascreen TR-FRET signal (raw ratio), sheet CDK9",CDK9–cyclin T; compound 31.5521 nM,0.01447 and 0.01334
same,"Lanthascreen TR-FRET signal (raw ratio), sheet CDK9",CDK9–cyclin T; compound 99.3891 nM,0.01493 and 0.01478
same,"Lanthascreen TR-FRET signal (raw ratio), sheet CDK9",CDK9–cyclin T; compound 315.521 nM,0.01351 and 0.01148
same,"Lanthascreen TR-FRET signal (raw ratio), sheet CDK9",CDK9–cyclin T; compound 3155.21 nM,0.008801 and 0.0091
same,"Lanthascreen TR-FRET signal (raw ratio), sheet CDK9",CDK9–cyclin T; compound 10002 nM,0.004226 and 0.004622
same,DC50,[1],62 nM
same,TR-FRET signal at compound concentration 0.468 nM,"CDK12–cyclin K and DDB1; compound concentration 0.468 nM, raw replicate titration data",0.2748 and 0.2878
same,TR-FRET signal at compound concentration 2.16 nM,"CDK12–cyclin K and DDB1; compound concentration 2.16 nM, raw replicate titration data",0.3281 and 0.3452
same,TR-FRET signal at compound concentration 3.6 nM,"CDK12–cyclin K and DDB1; compound concentration 3.6 nM, raw replicate titration data",0.4287 and 0.4479
same,TR-FRET signal at compound concentration 7.92001 nM,"CDK12–cyclin K and DDB1; compound concentration 7.92001 nM, raw replicate titration data",0.6146 and 0.6538
same,TR-FRET signal at compound concentration 15.84 nM,"CDK12–cyclin K and DDB1; compound concentration 15.84 nM, raw replicate titration data",0.9627 and 1.0618
same,TR-FRET signal at compound concentration 30.96 nM,"CDK12–cyclin K and DDB1; compound concentration 30.96 nM, raw replicate titration data",1.485 and 1.709
same,TR-FRET signal at compound concentration 62.6401 nM,"CDK12–cyclin K and DDB1; compound concentration 62.6401 nM, raw replicate titration data",2.204 and 2.463
same,TR-FRET signal at compound concentration 125.28 nM,"CDK12–cyclin K and DDB1; compound concentration 125.28 nM, raw replicate titration data",2.739 and 3.004
same,TR-FRET signal at compound concentration 244.8 nM,"CDK12–cyclin K and DDB1; compound concentration 244.8 nM, raw replicate titration data",3.0364 and 3.323
same,TR-FRET signal at compound concentration 993.601 nM,"CDK12–cyclin K and DDB1; compound concentration 993.601 nM, raw replicate titration data",3.365 and 3.564
same,TR-FRET signal at compound concentration 2001.6 nM,"CDK12–cyclin K and DDB1; compound concentration 2001.6 nM, raw replicate titration data",3.296 and 3.552
same,EC50,"CDK12–cyclin K and DDB1; in vitro complex formation, 50 nM CDK12–cyclin K, 100 nM DDB1, text and figures, read-out: TR-FRET EC50",41 ± 2 nM
same,EC50,"CDK12–cyclin K and DDB1; sheet MOESM7, read-out: log TR-FRET EC50 (converted)",40.9 nM
same,EC50,"CDK12–cyclin K and DDB1; source data sheet correlations, read-out: TR-FRET EC50",40.9 nM
